Source: ChEMBL document CHEMBL1201862, “PubChem BioAssay data set” (2004)
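Cultured in 96-well plates, cells were exposed to test compound for 48 hours across five concentrations. Here, GI50 denotes the concentration required for 50% inhibition of growth.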 The source made the active and inactive calls. Cut-off read from the data, not from the text of the source: active = GI50 up to about 1.1 µM and inactive = higher.

Key:
Assay in all cases: DTP human tumour cell line panel, 48 h
HL-60 = tested on: HL-60
A549 = tested on: A549
OVCAR-8 = tested on: OVCAR-8
SF-295 = tested on: SF-295
OVCAR-5 = tested on: OVCAR-5
T47D = tested on: T47D
UACC-62 = tested on: UACC-62
786-0 = tested on: 786-0
RPMI-8226 = tested on: RPMI-8226
SK-OV-3 = tested on: SK-OV-3
LOX IMVI = tested on: LOX IMVI
HT-29 = tested on: HT-29
HOP-92 = tested on: HOP-92
SW-620 = tested on: SW-620
MOLT-4 = tested on: MOLT-4
MDA-MB-435 = tested on: MDA-MB-435
CAKI-1 = tested on: CAKI-1
UO-31 = tested on: UO-31
IGROV-1 = tested on: IGROV-1
SR = tested on: SR
SNB-19 = tested on: SNB-19
NCI-H522 = tested on: NCI-H522
M14 = tested on: M14
MDA-MB-231 = tested on: MDA-MB-231
COLO 205 = tested on: COLO 205
NCI-H226 = tested on: NCI-H226
HCC 2998 = tested on: HCC 2998
HCT-15 = tested on: HCT-15
HOP-62 = tested on: HOP-62
RXF 393 = tested on: RXF 393
SK-MEL-28 = tested on: SK-MEL-28
EKVX = tested on: EKVX
CCRF-CEM = tested on: CCRF-CEM
OVCAR-3 = tested on: OVCAR-3
ACHN = tested on: ACHN
NCI/ADR-RES = tested on: NCI/ADR-RES
U-251 = tested on: U-251
UACC-257 = tested on: UACC-257
SK-MEL-2 = tested on: SK-MEL-2
HCT-116 = tested on: HCT-116
Hs-578T = tested on: Hs-578T
TK-10 = tested on: TK-10
PC-3 = tested on: PC-3
SN12C = tested on: SN12C
NCI-H460 = tested on: NCI-H460
OVCAR-4 = tested on: OVCAR-4
BT-549 = tested on: BT-549
DU-145 = tested on: DU-145
MDA-N = tested on: MDA-N
K562 = tested on: K562
NCI-H23 = tested on: NCI-H23
KM12 = tested on: KM12
SK-MEL-5 = tested on: SK-MEL-5
A498 = tested on: A498
SF-268 = tested on: SF-268
SNB-75 = tested on: SNB-75

SMILES: O=C1OC(=O)C2=C1C(c1cccs1)C=C(c1cccnc1)N2c1ccncc1 (stereo unspecified)
- GI50 (HL-60): 11 µM (inactive)
- GI50 (A549): 17.6 µM (inactive)
- GI50 (OVCAR-8): 21.6 µM (inactive)
- GI50 (SF-295): 20.9 µM (inactive)
- GI50 (OVCAR-5): 12.2 µM (inactive)
- GI50 (T47D): 18.2 µM (inactive)
- GI50 (UACC-62): 19.9 µM (inactive)
- GI50 (786-0): 17.3 µM (inactive)
- GI50 (RPMI-8226): 13 µM (inactive)
- GI50 (SK-OV-3): 24.9 µM (inactive)
- GI50 (LOX IMVI): 13.2 µM (inactive)
- GI50 (HT-29): 16.8 µM (inactive)
- GI50 (HOP-92): 12.8 µM (inactive)
- GI50 (SW-620): 20.7 µM (inactive)
- GI50 (MOLT-4): 23.1 µM (inactive)
- GI50 (MDA-MB-435): 20 µM (inactive)
- GI50 (CAKI-1): 15.1 µM (inactive)
- GI50 (UO-31): 15.6 µM (inactive)
- GI50 (IGROV-1): 13.8 µM (inactive)
- GI50 (SR): 1.12 µM (active)
- GI50 (SNB-19): 18 µM (inactive)
- GI50 (NCI-H522): 13.8 µM (inactive)
- GI50 (M14): 13.2 µM (inactive)
- GI50 (MDA-MB-231): 19.9 µM (inactive)
- GI50 (COLO 205): 17.5 µM (inactive)
- GI50 (NCI-H226): 21.6 µM (inactive)
- GI50 (HCC 2998): 14.1 µM (inactive)
- GI50 (HCT-15): 14.2 µM
- GI50 (HOP-62): 15.8 µM (inactive)
- GI50 (RXF 393): 16.2 µM (inactive)
- GI50 (SK-MEL-28): 24.3 µM (inactive)
- GI50 (EKVX): 14 µM (inactive)
- GI50 (CCRF-CEM): 20.1 µM (inactive)
- GI50 (OVCAR-3): 13.4 µM (inactive)
- GI50 (ACHN): 16.5 µM (inactive)
- GI50 (NCI/ADR-RES): 29.4 µM (inactive)
- GI50 (U-251): 16.9 µM (inactive)
- GI50 (UACC-257): 12.3 µM (inactive)
- GI50 (SK-MEL-2): 15.4 µM (inactive)
- GI50 (HCT-116): 14.3 µM (inactive)
- GI50 (Hs-578T): 18.7 µM (inactive)
- GI50 (TK-10): 17 µM (inactive)
- GI50 (PC-3): 12.2 µM (inactive)
- GI50 (SN12C): 17.1 µM (inactive)
- GI50 (NCI-H460): 17.3 µM (inactive)
- GI50 (OVCAR-4): 20 µM (inactive)
- GI50 (BT-549): 15.5 µM (inactive)
- GI50 (DU-145): 16.6 µM (inactive)
- GI50 (MDA-N): 17.8 µM (inactive)
- GI50 (K562): 9.12 µM (inactive)
- GI50 (NCI-H23): 17.6 µM (inactive)
- GI50 (KM12): 13.4 µM (inactive)
- GI50 (SK-MEL-5): 17.4 µM (inactive)
- GI50 (A498): 18.7 µM (inactive)
- GI50 (SF-268): 16.6 µM (inactive)
- GI50 (SNB-75): 15.2 µM (inactive)
